# Source: PubChem BioAssay (NCI)
# Several values for one entry are separate records, joined by “and”; a condition that tells them apart may be missing. Identical values can stand only once.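 Test compounds were applied to cells in 96-well plates for 48 hours at 5 doses. GI50 is the concentration that inhibits growth by half. Definition used: TGI = concentration required for complete inhibition of growth.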 Where a SMILES comes first, the peptide text is derived from it. [ ]: non-standard residue; d: D form. The star is where a group is joined. ξ: configuration not given here. X3 = COc1ccc(C(N*)c2ccc(OC)cc2)cc1; NMeF = CN[C@@H](Cc1ccccc1)C(=O)O; NMeD = CN[C@@H](CC(=O)O)C(=O)O; NMeV = CN[C@H](C(=O)O)C(C)C; ξNMeV = CNC(C(=O)O)C(C)C; Boc = CC(C)(C)OC(=O)*; ξNMeA = CNC(C)C(=O)O; ξV = CC(C)C(N)C(=O)O
# Assays:
# Test in all cases: NCI anticancer screen, dose series, 48 h
# OVCAR-5 ovarian = tested on: OVCAR-5 ovarian
# SK-MEL-5 melanoma = tested on: SK-MEL-5 melanoma
# HOP-62 NSCLC = tested on: HOP-62 NSCLC
# MDA-MB-231 breast = tested on: MDA-MB-231 breast
# SK-MEL-2 melanoma = tested on: SK-MEL-2 melanoma
# SK-OV-3 ovarian = tested on: SK-OV-3 ovarian
# BT-549 breast = tested on: BT-549 breast
# SF-539 CNS = tested on: SF-539 CNS
# MCF7 breast = tested on: MCF7 breast
# LOX IMVI melanoma = tested on: LOX IMVI melanoma
SMILES,GI50 (OVCAR-5 ovarian),TGI (OVCAR-5 ovarian),GI50 (SK-MEL-5 melanoma),TGI (SK-MEL-5 melanoma),GI50 (HOP-62 NSCLC),TGI (HOP-62 NSCLC),TGI (MDA-MB-231 breast),GI50 (SK-MEL-2 melanoma),TGI (SK-MEL-2 melanoma),GI50 (SK-OV-3 ovarian),TGI (SK-OV-3 ovarian),TGI (BT-549 breast),GI50 (SF-539 CNS),TGI (SF-539 CNS),TGI (MCF7 breast),GI50 (LOX IMVI melanoma),TGI (LOX IMVI melanoma),GI50 (MDA-MB-231 breast),GI50 (BT-549 breast),GI50 (MCF7 breast)
COc1ccc(C(NC(=O)C[C@@H](C(=O)N(C)C(C)C(=O)O)N(C)C(=O)[C@@H]2CCCN2C(=O)[C@H](C(C)C)N(C)C(=O)C(C(C)C)N(C)C(=O)[C@H](Cc2ccccc2)N(C)C(=O)C(NC(=O)OC(C)(C)C)C(C)C)c2ccc(OC)cc2)cc1 (stereo partly specified) (Boc-[ξV][NMeF][ξNMeV][NMeV]P[NMeD](X3)[ξNMeA]-OH),17.3 µM,> 37.5 µM and 31.5 µM,15.2 µM,12.7 µM and 28.5 µM,18.5 µM,31.8 µM and 35.5 µM,32.3 µM,14.5 µM,16.8 µM and 28.9 µM,19.2 µM,> 37.5 µM and 33.3 µM,15.4 µM,22.5 µM,17.9 µM and 39.8 µM,37.5 µM,17.2 µM,15.7 µM and 31.2 µM,–,–,–
CC1(COc2ccc3c(c2)ncn3-c2ccc3cccc(N4CCC(N)CC4)c3n2)COC1,3.26 µM and 2.57 µM,12.8 µM and > 10 µM,2.31 µM and 2.12 µM,6.7 µM and 5.22 µM,1.74 µM and 1.49 µM,6.59 µM and 9.02 µM,8.69 µM and 7.63 µM,4.96 µM and 3.29 µM,11.9 µM and 6.85 µM,15.5 µM and > 10 µM,29.2 µM and > 10 µM,12.7 µM and 9.74 µM,1.26 µM and 1.01 µM,2.65 µM and 2.59 µM,6.54 µM and 7.83 µM,1.4 µM and 1.16 µM,3.97 µM and > 10 µM,2.55 µM and 1.88 µM,2.8 µM and 2.64 µM,2.17 µM and 2.2 µM
CCn1c(-c2nonc2N)nc2c(C#CC(C)(C)O)nc(OC[C@@H](N)c3ccccc3)cc21,7.92 µM,15.1 µM,3.99 µM,7.37 µM,6.09 µM,10.2 µM,8.86 µM,5.83 µM,10.2 µM,4.16 µM,9.47 µM,7.48 µM,3.73 µM,7.71 µM,6.12 µM,4.2 µM,8.82 µM,4.68 µM,3.94 µM,2.94 µM
COCCOc1ccc(-c2nc3ccc(-c4nc5ccc(N6CCN(C)CC6)cc5[nH]4)cc3[nH]2)cc1,3.59 µM,9.97 µM,0.351 µM,1.88 µM,1.56 µM,14.5 µM,6.49 µM,1.64 µM,3.59 µM,2.7 µM,15.6 µM,3.96 µM,1.22 µM,2.83 µM,11.8 µM,0.851 µM,2.83 µM,2.25 µM,1.76 µM,0.316 µM
O=C(Nc1ccc(Oc2ccc(Nc3nc4ccccc4s3)cc2)cc1)Nc1ccc(Cl)c(C(F)(F)F)c1,1.64 µM,3.61 µM,1.45 µM,2.79 µM,1.82 µM,4.03 µM,2.86 µM,2.12 µM,4.35 µM,1.86 µM,4.42 µM,3.05 µM,1.64 µM,3.75 µM,3.7 µM,1.42 µM,2.76 µM,1.37 µM,1.54 µM,1.35 µM
COc1ccc2nc3cc(Cl)ccc3c(NCCNCC(C)O)c2c1 (stereo unspecified),1.67 µM,6.3 µM,1.68 µM,3.06 µM,1.31 µM,4.09 µM,4.28 µM,2.08 µM,4.26 µM,2.58 µM,9.75 µM,21.8 µM,1.65 µM,3.51 µM,5.51 µM,1.15 µM,2.66 µM,1.49 µM,7.92 µM,1.28 µM
O=C1NC(=NC(CO)Cc2ccccc2)S/C1=C\c1ccc2ncccc2c1 (stereo unspecified),> 25 µM and 6.83 µM,> 25 µM,> 25 µM and 5.17 µM,> 25 µM and 12.3 µM,> 23.4 µM and 6.05 µM,> 25 µM,> 25 µM,10.1 µM and 4.32 µM,> 25 µM and 12.4 µM,14.1 µM and 3.74 µM,> 25 µM and 21.2 µM,> 25 µM and 11.4 µM,11.9 µM and 2.73 µM,> 25 µM and 10.1 µM,> 25 µM,16.5 µM and 3.85 µM,> 25 µM,> 25 µM and 10.3 µM,–,7.25 µM and 2.98 µM
c1ccc(Sc2ncnc3ccccc23)cc1,19.2 µM,37.2 µM,11.4 µM,24 µM,16.3 µM,40.5 µM,49.9 µM,22.6 µM,63 µM,22.1 µM,49.6 µM,22 µM,15.9 µM,34.2 µM,67.9 µM,6.27 µM,19.8 µM,13.5 µM,5.42 µM,17.8 µM
Cc1nnc(NC(=O)c2nc(S(=O)(=O)Cc3ccc(F)cc3)ncc2Cl)s1,12.4 µM,25.4 µM,17 µM,31.4 µM,19.8 µM,39.3 µM,3.31 µM,3.19 µM,9.72 µM,17.9 µM,32 µM,5.25 µM,4.27 µM,15.4 µM,17.6 µM,1.5 µM,2.96 µM,1.78 µM,2.3 µM,3.29 µM
Oc1[nH]c2ccccc2c1N=Nc1nc(-c2ccc(Br)cc2)cs1,–,> 100 µM,–,33.4 µM,–,28.6 µM,62.5 µM,–,> 100 µM,–,66.3 µM,45.6 µM,–,34.3 µM,> 100 µM,–,33.1 µM,–,–,–
CC(=O)CC(OC(C)=O)C1=CCC2C(CC1C)OC(=O)C2C (stereo unspecified),–,> 100 µM,–,> 100 µM,–,> 100 µM,> 100 µM,–,> 100 µM,–,> 100 µM,> 100 µM,–,> 100 µM,> 100 µM,–,> 100 µM,–,–,–
